From the kinase profiling compilation of Christmann-Franck et al. (2016)

Assays:
Test in all cases: KINOMEscan competition binding
Details in all cases: compound 10.0 µM
[1] = target: TYK2 JH1 catalytic (human) (UniProt P29597)
PAK3 (human) = PAK3 (human) (UniProt O75914)
[2] = system: EGFR (human), P00533 [752-759 del]
EGFR (human) = EGFR (human) (UniProt P00533)
ICK (human) = ICK (human) (UniProt Q9UPZ9)
CDK16 (human) = CDK16 (human) (UniProt Q00536)
CHUK (human) = CHUK (human) (UniProt O15111)
ULK3 (human) = ULK3 (human) (UniProt Q6PHR2)
ULK3 (human), sequence (Q6PHR2 whole entry, looked up): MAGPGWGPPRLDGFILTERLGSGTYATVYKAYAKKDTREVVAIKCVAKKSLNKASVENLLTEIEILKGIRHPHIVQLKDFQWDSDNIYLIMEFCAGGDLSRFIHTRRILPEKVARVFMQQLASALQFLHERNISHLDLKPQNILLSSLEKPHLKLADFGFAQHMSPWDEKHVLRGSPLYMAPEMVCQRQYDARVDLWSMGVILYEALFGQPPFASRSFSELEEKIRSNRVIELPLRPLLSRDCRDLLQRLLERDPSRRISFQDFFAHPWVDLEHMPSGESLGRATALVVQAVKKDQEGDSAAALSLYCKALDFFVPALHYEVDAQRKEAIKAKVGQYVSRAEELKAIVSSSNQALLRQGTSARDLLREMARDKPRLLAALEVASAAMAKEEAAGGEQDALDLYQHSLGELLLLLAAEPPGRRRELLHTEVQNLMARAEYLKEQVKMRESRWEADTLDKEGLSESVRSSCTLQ

RPS6KA2 KD2 (human) = RPS6KA2 KD2 (human) (UniProt Q15349)
TBK1 (human) = TBK1 (human) (UniProt Q9UHD2)
ROS1 (human) = ROS1 (human) (UniProt P08922)
MTOR (human) = MTOR (human) (UniProt P42345)
CSNK1G3 (human) = CSNK1G3 (human) (UniProt Q9Y6M4)
TNIK (human) = TNIK (human) (UniProt Q9UKE5)
RPS6KA3 KD1 (human) = RPS6KA3 KD1 (human) (UniProt P51812)
CSK (human) = CSK (human) (UniProt P41240)
PAK1 (human) = PAK1 (human) (UniProt Q13153)
MAP2K5 (human) = MAP2K5 (human) (UniProt Q13163)
WEE2 (human) = WEE2 (human) (UniProt P0C1S8)
PRKACB (human) = PRKACB (human) (UniProt P22694)
RIOK2 (human) = RIOK2 (human) (UniProt Q9BVS4)
MET (human) = MET (human) (UniProt P08581)
STK11 (human) = STK11 (human) (UniProt Q15831)
IRAK1 (human) = IRAK1 (human) (UniProt P51617)
PAK7 (human) = PAK7 (human) (UniProt Q9P286)
EPHA7 (human) = EPHA7 (human) (UniProt Q15375)
EPHA7 (human), sequence (Q15375 whole entry, looked up): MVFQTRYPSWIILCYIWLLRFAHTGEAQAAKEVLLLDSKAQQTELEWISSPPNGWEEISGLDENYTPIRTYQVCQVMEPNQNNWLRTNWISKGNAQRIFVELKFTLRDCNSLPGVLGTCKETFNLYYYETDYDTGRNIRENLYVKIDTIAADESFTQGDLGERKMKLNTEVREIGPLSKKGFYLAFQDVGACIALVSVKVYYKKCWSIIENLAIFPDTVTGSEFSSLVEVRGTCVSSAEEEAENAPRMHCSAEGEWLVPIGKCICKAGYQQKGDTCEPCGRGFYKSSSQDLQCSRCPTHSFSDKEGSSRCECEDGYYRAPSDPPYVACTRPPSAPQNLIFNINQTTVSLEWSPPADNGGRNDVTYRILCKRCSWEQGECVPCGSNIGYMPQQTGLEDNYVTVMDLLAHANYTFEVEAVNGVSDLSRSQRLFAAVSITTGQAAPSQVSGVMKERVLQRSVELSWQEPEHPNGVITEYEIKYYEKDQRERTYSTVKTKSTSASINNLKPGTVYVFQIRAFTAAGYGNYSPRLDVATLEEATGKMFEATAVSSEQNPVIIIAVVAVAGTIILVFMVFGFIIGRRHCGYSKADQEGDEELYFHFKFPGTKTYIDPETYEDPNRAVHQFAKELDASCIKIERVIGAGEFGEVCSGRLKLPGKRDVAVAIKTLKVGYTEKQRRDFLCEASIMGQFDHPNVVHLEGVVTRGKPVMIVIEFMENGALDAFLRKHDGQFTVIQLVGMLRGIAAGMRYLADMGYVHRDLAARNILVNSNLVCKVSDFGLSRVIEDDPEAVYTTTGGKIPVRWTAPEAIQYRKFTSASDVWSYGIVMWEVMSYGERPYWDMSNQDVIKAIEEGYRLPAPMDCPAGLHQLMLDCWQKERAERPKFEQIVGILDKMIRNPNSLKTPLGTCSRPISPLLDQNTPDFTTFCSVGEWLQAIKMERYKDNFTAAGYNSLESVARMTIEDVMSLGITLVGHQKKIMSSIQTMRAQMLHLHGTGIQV

PRKCH (human) = PRKCH (human) (UniProt P24723)
ACVR1 (human) = ACVR1 (human) (UniProt Q04771)
CDK11B (human) = CDK11B (human) (UniProt P21127)
CAMKK2 (human) = CAMKK2 (human) (UniProt Q96RR4)
CAMKK2 (human), sequence (Q96RR4 whole entry, looked up): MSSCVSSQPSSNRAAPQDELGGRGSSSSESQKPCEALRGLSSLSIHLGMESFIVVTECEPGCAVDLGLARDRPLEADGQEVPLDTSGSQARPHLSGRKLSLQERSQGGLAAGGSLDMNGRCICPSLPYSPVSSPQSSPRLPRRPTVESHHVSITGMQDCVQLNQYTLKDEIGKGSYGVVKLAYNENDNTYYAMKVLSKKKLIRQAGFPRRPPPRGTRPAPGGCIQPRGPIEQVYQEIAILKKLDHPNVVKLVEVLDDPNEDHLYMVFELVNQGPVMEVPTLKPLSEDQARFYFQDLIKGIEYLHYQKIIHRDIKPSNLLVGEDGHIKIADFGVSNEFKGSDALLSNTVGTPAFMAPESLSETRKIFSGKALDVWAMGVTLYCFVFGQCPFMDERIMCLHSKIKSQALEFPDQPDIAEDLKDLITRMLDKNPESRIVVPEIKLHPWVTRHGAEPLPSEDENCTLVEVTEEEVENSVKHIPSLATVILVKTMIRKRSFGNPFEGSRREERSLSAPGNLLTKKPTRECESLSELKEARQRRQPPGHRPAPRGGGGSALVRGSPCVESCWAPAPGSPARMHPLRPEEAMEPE

RPS6KA4 KD1 (human) = RPS6KA4 KD1 (human) (UniProt O75676)
CDC42BPG (human) = CDC42BPG (human) (UniProt Q6DT37)
PIP4K2B (human) = PIP4K2B (human) (UniProt P78356)
AKT3 (human) = AKT3 (human) (UniProt Q9Y243)
RPS6KA5 KD1 (human) = RPS6KA5 KD1 (human) (UniProt O75582)
RIPK2 (human) = RIPK2 (human) (UniProt O43353)
NLK (human) = NLK (human) (UniProt Q9UBE8)
NLK (human), sequence (Q9UBE8 whole entry, looked up): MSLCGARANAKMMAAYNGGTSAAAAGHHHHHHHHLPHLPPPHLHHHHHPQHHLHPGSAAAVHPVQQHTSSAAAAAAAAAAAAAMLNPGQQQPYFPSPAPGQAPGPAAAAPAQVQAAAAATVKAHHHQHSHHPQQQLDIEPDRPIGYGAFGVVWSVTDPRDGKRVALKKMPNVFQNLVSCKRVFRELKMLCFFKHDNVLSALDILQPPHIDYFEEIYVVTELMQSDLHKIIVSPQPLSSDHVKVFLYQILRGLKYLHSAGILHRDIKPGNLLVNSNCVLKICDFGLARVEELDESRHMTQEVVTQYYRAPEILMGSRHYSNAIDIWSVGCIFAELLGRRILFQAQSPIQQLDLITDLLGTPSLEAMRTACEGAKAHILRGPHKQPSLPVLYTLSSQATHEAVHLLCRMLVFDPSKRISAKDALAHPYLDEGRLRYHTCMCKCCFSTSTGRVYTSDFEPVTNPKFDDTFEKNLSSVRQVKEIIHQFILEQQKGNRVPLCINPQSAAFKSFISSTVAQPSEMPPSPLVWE

LYN (human) = LYN (human) (UniProt P07948)
PLK4 (human) = PLK4 (human) (UniProt O00444)
PHKG2 (human) = PHKG2 (human) (UniProt P15735)

EGFR (human), P00533 [752-759 del], sequence (P00533 whole entry, looked up, stated change not applied): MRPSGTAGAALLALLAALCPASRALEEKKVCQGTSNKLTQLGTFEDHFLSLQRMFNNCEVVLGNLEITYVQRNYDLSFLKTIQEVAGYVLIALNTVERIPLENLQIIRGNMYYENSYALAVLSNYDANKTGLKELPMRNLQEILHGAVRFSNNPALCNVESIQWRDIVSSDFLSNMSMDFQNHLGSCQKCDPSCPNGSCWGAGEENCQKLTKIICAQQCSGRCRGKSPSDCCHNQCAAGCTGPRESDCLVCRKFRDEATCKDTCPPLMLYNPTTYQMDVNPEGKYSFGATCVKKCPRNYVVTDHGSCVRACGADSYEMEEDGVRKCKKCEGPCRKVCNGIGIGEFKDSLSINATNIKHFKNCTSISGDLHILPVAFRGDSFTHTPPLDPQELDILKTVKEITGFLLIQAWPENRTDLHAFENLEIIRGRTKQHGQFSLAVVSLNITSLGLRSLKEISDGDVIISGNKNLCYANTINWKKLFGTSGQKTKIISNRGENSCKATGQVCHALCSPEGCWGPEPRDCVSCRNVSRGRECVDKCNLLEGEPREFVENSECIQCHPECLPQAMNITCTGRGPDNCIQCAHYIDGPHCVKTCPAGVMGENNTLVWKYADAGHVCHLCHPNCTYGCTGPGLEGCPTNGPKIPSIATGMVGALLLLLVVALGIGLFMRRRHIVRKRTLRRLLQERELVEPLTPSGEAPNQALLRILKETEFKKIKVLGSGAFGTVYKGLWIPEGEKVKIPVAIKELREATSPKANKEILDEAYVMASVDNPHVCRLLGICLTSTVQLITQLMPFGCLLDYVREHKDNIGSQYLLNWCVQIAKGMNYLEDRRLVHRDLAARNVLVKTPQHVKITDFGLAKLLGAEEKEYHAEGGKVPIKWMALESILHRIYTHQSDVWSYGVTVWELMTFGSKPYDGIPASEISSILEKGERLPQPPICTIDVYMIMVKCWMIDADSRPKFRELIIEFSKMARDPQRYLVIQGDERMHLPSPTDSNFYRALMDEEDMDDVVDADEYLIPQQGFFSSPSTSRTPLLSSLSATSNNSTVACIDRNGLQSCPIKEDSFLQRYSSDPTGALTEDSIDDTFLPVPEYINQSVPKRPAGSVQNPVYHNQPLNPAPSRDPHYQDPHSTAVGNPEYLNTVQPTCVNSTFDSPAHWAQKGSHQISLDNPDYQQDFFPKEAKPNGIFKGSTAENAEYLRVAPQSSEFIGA
EGFR (human), sequence (P00533 whole entry, looked up): as the sequence (P00533 whole entry, looked up, stated change not applied) above

For `COc1cc(C(=O)N2CCC(N3CCN(C)CC3)CC2)ccc1Nc1ncc2c(n1)N(C)c1ccccc1C(=O)N2C`, the kinase still bound, per cent of control [1] was 52%, the kinase still bound, per cent of control (PAK3 (human)) was 83% and the kinase still bound, per cent of control [2] was 99%. The kinase still bound, per cent of control (EGFR (human)) was 84%, the kinase still bound, per cent of control (ICK (human)) was 90% and the kinase still bound, per cent of control (CDK16 (human)) was 96%. It also gave a kinase still bound, per cent of control (CHUK (human)) of 100%, a kinase still bound, per cent of control (ULK3 (human)) of 100% and a kinase still bound, per cent of control (RPS6KA2 KD2 (human)) of 7.5%. It also gave a kinase still bound, per cent of control (TBK1 (human)) of 97%, a kinase still bound, per cent of control (ROS1 (human)) of 12% and a kinase still bound, per cent of control (MTOR (human)) of 97%. For the same molecule, the kinase still bound, per cent of control (CSNK1G3 (human)) was 93%, the kinase still bound, per cent of control (TNIK (human)) was 100% and the kinase still bound, per cent of control (RPS6KA3 KD1 (human)) was 77%. The kinase still bound, per cent of control (CSK (human)) was 90%, the kinase still bound, per cent of control (PAK1 (human)) was 95% and the kinase still bound, per cent of control (MAP2K5 (human)) was 85%. The kinase still bound, per cent of control (WEE2 (human)) was 100%, the kinase still bound, per cent of control (PRKACB (human)) was 100% and the kinase still bound, per cent of control (RIOK2 (human)) was 100%. For the same molecule, the kinase still bound, per cent of control (MET (human)) was 100%, the kinase still bound, per cent of control (STK11 (human)) was 96% and the kinase still bound, per cent of control (IRAK1 (human)) was 100%. It also gave a kinase still bound, per cent of control (PAK7 (human)) of 96%, a kinase still bound, per cent of control (EPHA7 (human)) of 97% and a kinase still bound, per cent of control (PRKCH (human)) of 100%. For the same molecule, the kinase still bound, per cent of control (ACVR1 (human)) was 98%, the kinase still bound, per cent of control (CDK11B (human)) was 84% and the kinase still bound, per cent of control (CAMKK2 (human)) was 31%. For the same molecule, the kinase still bound, per cent of control (RPS6KA4 KD1 (human)) was 100%, the kinase still bound, per cent of control (CDC42BPG (human)) was 100% and the kinase still bound, per cent of control (PIP4K2B (human)) was 100%. The kinase still bound, per cent of control (AKT3 (human)) was 100%, the kinase still bound, per cent of control (RPS6KA5 KD1 (human)) was 96% and the kinase still bound, per cent of control (RIPK2 (human)) was 100%. For the same molecule, the kinase still bound, per cent of control (NLK (human)) was 50%, the kinase still bound, per cent of control (LYN (human)) was 100% and the kinase still bound, per cent of control (PLK4 (human)) was 0%. The kinase still bound, per cent of control (PHKG2 (human)) was 33%.

`CN(C)C/C=C/C(=O)Nc1ccc(C(=O)Nc2cccc(Nc3nccc(-c4cccnc4)n3)c2)cc1` was tested, and the kinase still bound, per cent of control [1] was 15%, the kinase still bound, per cent of control (PAK3 (human)) was 100% and the kinase still bound, per cent of control [2] was 88%. It also gave a kinase still bound, per cent of control (EGFR (human)) of 100%, a kinase still bound, per cent of control (ICK (human)) of 62% and a kinase still bound, per cent of control (CDK16 (human)) of 91%. The kinase still bound, per cent of control (CHUK (human)) was 54%, the kinase still bound, per cent of control (ULK3 (human)) was 88% and the kinase still bound, per cent of control (RPS6KA2 KD2 (human)) was 100%. It also gave a kinase still bound, per cent of control (TBK1 (human)) of 38%, a kinase still bound, per cent of control (ROS1 (human)) of 76% and a kinase still bound, per cent of control (MTOR (human)) of 80%. For the same molecule, the kinase still bound, per cent of control (CSNK1G3 (human)) was 100%, the kinase still bound, per cent of control (TNIK (human)) was 36% and the kinase still bound, per cent of control (RPS6KA3 KD1 (human)) was 62%. The kinase still bound, per cent of control (CSK (human)) was 97%, the kinase still bound, per cent of control (PAK1 (human)) was 90% and the kinase still bound, per cent of control (MAP2K5 (human)) was 41%. For the same molecule, the kinase still bound, per cent of control (WEE2 (human)) was 100%, the kinase still bound, per cent of control (PRKACB (human)) was 100% and the kinase still bound, per cent of control (RIOK2 (human)) was 9.6%. It also gave a kinase still bound, per cent of control (MET (human)) of 100%, a kinase still bound, per cent of control (STK11 (human)) of 83% and a kinase still bound, per cent of control (IRAK1 (human)) of 0.9%. It also gave a kinase still bound, per cent of control (PAK7 (human)) of 52%, a kinase still bound, per cent of control (EPHA7 (human)) of 100% and a kinase still bound, per cent of control (PRKCH (human)) of 100%. It also gave a kinase still bound, per cent of control (ACVR1 (human)) of 53%, a kinase still bound, per cent of control (CDK11B (human)) of 91% and a kinase still bound, per cent of control (CAMKK2 (human)) of 16%. The kinase still bound, per cent of control (RPS6KA4 KD1 (human)) was 100%, the kinase still bound, per cent of control (CDC42BPG (human)) was 76% and the kinase still bound, per cent of control (PIP4K2B (human)) was 56%. The kinase still bound, per cent of control (AKT3 (human)) was 100%, the kinase still bound, per cent of control (RPS6KA5 KD1 (human)) was 100% and the kinase still bound, per cent of control (RIPK2 (human)) was 84%. It also gave a kinase still bound, per cent of control (NLK (human)) of 82%, a kinase still bound, per cent of control (LYN (human)) of 100% and a kinase still bound, per cent of control (PLK4 (human)) of 29%. It also gave a kinase still bound, per cent of control (PHKG2 (human)) of 56%.

`CCN1CCN(C(=O)Cc2ccc(Nc3ncc(F)c(Nc4ccc(C(=O)Nc5ccccc5Cl)cc4)n3)cc2)CC1` gave a kinase still bound, per cent of control [1] of 22%, a kinase still bound, per cent of control (PAK3 (human)) of 12% and a kinase still bound, per cent of control [2] of 56%. It also gave a kinase still bound, per cent of control (EGFR (human)) of 26%, a kinase still bound, per cent of control (ICK (human)) of 100% and a kinase still bound, per cent of control (CDK16 (human)) of 40%. The kinase still bound, per cent of control (CHUK (human)) was 84%, the kinase still bound, per cent of control (ULK3 (human)) was 1.5% and the kinase still bound, per cent of control (RPS6KA2 KD2 (human)) was 57%. For the same molecule, the kinase still bound, per cent of control (TBK1 (human)) was 5.6%, the kinase still bound, per cent of control (ROS1 (human)) was 34% and the kinase still bound, per cent of control (MTOR (human)) was 20%. It also gave a kinase still bound, per cent of control (CSNK1G3 (human)) of 100%, a kinase still bound, per cent of control (TNIK (human)) of 45% and a kinase still bound, per cent of control (RPS6KA3 KD1 (human)) of 32%. For the same molecule, the kinase still bound, per cent of control (CSK (human)) was 73%, the kinase still bound, per cent of control (PAK1 (human)) was 53% and the kinase still bound, per cent of control (MAP2K5 (human)) was 9.8%. It also gave a kinase still bound, per cent of control (WEE2 (human)) of 12%, a kinase still bound, per cent of control (PRKACB (human)) of 76% and a kinase still bound, per cent of control (RIOK2 (human)) of 17%. The kinase still bound, per cent of control (MET (human)) was 8.6%, the kinase still bound, per cent of control (STK11 (human)) was 12% and the kinase still bound, per cent of control (IRAK1 (human)) was 22%. It also gave a kinase still bound, per cent of control (PAK7 (human)) of 56%, a kinase still bound, per cent of control (EPHA7 (human)) of 55% and a kinase still bound, per cent of control (PRKCH (human)) of 100%. It also gave a kinase still bound, per cent of control (ACVR1 (human)) of 13%, a kinase still bound, per cent of control (CDK11B (human)) of 87% and a kinase still bound, per cent of control (CAMKK2 (human)) of 48%. For the same molecule, the kinase still bound, per cent of control (RPS6KA4 KD1 (human)) was 100%, the kinase still bound, per cent of control (CDC42BPG (human)) was 66% and the kinase still bound, per cent of control (PIP4K2B (human)) was 1.6%. It also gave a kinase still bound, per cent of control (AKT3 (human)) of 100%, a kinase still bound, per cent of control (RPS6KA5 KD1 (human)) of 100% and a kinase still bound, per cent of control (RIPK2 (human)) of 19%. The kinase still bound, per cent of control (NLK (human)) was 98%, the kinase still bound, per cent of control (LYN (human)) was 46% and the kinase still bound, per cent of control (PLK4 (human)) was 0.25%. For the same molecule, the kinase still bound, per cent of control (PHKG2 (human)) was 42%.
